Results published in article PMC11241330, “Development of a Radiolabeled Cyclin-Dependent Kinases 4 and 6 (CDK4/6) Inhibitor for Brain and Cancer PET Imaging” (International Journal of Molecular Sciences, 2024).

What was measured:
[1] = biological target: T1, CDK6 (Homo sapiens, UniProt Q00534); test: luminescence kinase activity assay (BPS Bioscience CDK6/CyclinD3 kit #[…]); type: biochemical
T1 construct: purified recombinant CDK6/CyclinD3; with CyclinD3

[2] = biological target: T2, CDK4 (Homo sapiens, UniProt P11802); test: luminescence kinase activity assay (BPS Bioscience CDK4/CyclinD3 kit #[…]); type: biochemical
T2 construct: purified recombinant CDK4/CyclinD3; with CyclinD3
T2 sequence (P11802 2-303): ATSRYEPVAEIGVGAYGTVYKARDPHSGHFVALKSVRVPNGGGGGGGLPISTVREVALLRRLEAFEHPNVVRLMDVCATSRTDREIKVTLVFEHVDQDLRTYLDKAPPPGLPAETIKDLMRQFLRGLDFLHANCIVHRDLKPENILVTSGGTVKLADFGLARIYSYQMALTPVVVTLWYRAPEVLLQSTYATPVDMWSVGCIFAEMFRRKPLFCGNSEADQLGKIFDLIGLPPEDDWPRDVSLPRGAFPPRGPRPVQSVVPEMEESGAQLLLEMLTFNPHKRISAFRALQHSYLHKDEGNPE
T2 sequence (P30281 whole entry partner): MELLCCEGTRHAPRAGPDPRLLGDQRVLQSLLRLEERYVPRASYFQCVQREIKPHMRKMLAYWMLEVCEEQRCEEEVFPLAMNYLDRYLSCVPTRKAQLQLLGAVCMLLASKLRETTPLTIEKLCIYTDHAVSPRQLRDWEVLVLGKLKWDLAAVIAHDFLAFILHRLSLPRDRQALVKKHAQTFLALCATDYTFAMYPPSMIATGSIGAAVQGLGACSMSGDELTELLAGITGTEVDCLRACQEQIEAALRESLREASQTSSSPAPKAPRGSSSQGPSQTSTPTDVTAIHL

T1 sequence (Q00534 whole entry): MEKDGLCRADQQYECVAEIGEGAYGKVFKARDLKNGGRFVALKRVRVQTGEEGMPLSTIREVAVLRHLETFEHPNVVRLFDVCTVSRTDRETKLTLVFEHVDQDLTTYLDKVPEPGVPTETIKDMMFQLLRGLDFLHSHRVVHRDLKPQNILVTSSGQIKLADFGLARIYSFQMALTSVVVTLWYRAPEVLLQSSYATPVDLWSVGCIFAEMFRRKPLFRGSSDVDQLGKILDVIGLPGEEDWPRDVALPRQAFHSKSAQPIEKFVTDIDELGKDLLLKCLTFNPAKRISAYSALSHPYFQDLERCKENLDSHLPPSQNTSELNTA
T1 sequence (P30281 whole entry partner): as the sequence (P30281 whole entry partner) above

## CC(C)n1cnc2c(F)cc(-c3nc(Nc4ccc(CN5CCN(Cc6ccc(F)cc6)CC5)cn4)ncc3F)cc21 [NT431, 5-fluoro-4-(4-fluoro-1-isopropyl-1H-benzo[d]imidazol-6-yl)-N-(5-((4-(4-fluorobenzyl)piperazin-1-yl)methyl)pyridin-2-yl)pyrimidin-2-amine]
[1]
  IC50: 47.1 nM
[2]
  IC50: 23.7 nM
